Reference: US20220211846A1, “ABT-165 IN COMBINATION WITH FOLINIC ACID, 5-FLUOROURACIL, AND IRINOTECAN FOR THE TREATMENT OF CANCERS” (AbbVie Biotherapeutics Inc., priority 2017, published 2022)
Marks after values point to notes of the source that are not given here.

Key:
[1] = test system: HCT-116 human colon xenograft tumors; assay: HCT-116 colon xenograft model; assay type: in vivo, female SCID mice
Procedure: The effect of anti-DLL4-VEGF DVD-Igs (ABT-165) in combination with chemotherapy on tumor growth was evaluated on HCT-116 human colon xenograft tumors in female SCID mice. Briefly, 5×10^6 cells were inoculated subcutaneously into the right hind flank. Tumors were allowed to establish for 14 days, at which point tumor volume was determined using electronic caliper measurements using the formula: L×W^2/2. Mice were allocated into treatment groups (n=9 per group) so that each cohort had equivalent mean tumor volume of 192 mm^3 prior to initiation of therapy. Animals were dosed with 5-fluorouracil (5-FU), folinic acid (leucovorin), irinotecan, anti-VEGF mAb (AB014), and/or anti-DLL4-VEGF DVD-Ig (ABT-165) at the dose and schedule in Table 4. An anti-tetanus toxoid mAb (AB095) was used as a non-targeting isotype control. Tumor volume was measured twice a week for the duration of the experiment.

human DLL4 = human DLL4 (Homo sapiens, UniProt Q9NR61); assay: Binding affinity to DLL4
human VEGF = assay: Binding affinity to VEGF
[2] = test system: DLL4-mediated Notch-1 activation; assay: Inhibition of DLL4-mediated Notch-1 activation; assay type: cell-based
[3] = test system: human peripheral blood cells (PBC) from normal donors; assay: Cytokine release by human peripheral blood cells; assay type: cell-based; details: within expected range of negative control IgG1 antibodies
FcRn = FcRn (Homo sapiens, UniProt P55899); assay: Binding to FcRn; details: compared with human IgG1
Chain of FcRn (P55899 24-297 limits assumed, species assumed): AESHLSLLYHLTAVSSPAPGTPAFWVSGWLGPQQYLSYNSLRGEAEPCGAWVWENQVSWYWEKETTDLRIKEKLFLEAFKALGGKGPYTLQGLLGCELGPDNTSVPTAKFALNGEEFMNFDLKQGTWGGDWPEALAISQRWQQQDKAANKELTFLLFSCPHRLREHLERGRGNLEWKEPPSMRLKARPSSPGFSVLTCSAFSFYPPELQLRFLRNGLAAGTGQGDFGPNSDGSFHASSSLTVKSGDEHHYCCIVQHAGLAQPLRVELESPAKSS
Chain of FcRn (P61769 21-119 partner, species assumed): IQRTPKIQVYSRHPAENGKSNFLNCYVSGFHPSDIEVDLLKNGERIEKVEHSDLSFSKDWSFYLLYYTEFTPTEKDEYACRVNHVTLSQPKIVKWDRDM

Chain of human VEGF (P15692 207-320 limits assumed): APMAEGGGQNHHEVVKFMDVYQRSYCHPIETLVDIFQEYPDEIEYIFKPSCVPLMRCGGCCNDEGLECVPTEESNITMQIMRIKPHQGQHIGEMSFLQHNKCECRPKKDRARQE

For “ABT-165: dual-variable domain humanized immunoglobulin with dual specificity for DLL4 and VEGF; light chain SEQ ID No. 15, heavy chain SEQ ID No. 16”, the “efficacy compared to anti-VEGF monoclonal antibody (alone or each with FOLFIRI)” value ([1]; colon cancer xenograft model, FIG. 1) was “superior efficacy”, the “% TGI (percent tumor growth inhibition = 100 − (T/C × 100))” value ([1]; day 26 post size match, mean tumor volume vs treatment control group, dose and regimen as in Table 4, n=9 per group) was 67* % and the “affinity to DLL4” value (human DLL4) was “nanomolar affinities”. The “affinity to VEGF” value (human VEGF) was “nanomolar affinities”, the “inhibition of DLL4-mediated Notch-1 activation” value [2] was “potent inhibition” and the “ability to stimulate cytokine release” value [3] was “low ability”. The “binding to FcRn” value (FcRn) was “pH-dependent binding to FcRn within the expected range of human IgG1”.
